Reference: patent US20040023228A1, “System and method for analysing active ingredients designed to influence intra-cellular processes” (priority 2000, published 2004)

System: tubulin
Assay: FCS measurement of incorporation of rhodamine-labeled tubulin dimers into preformed microtubules (exchange kinetics in the assembly equilibrium)
Settings: 10^−5M tubulin assembly mixture, 10^−9M rhodamine-labeled tubulin, 37° C.

SMILES | concentration up to which the action on the described kinetics can be tracked
COC(=O)Nc1nc2ccc(C(=O)c3cccs3)cc2[nH]1 [nocodazole] | 10^−11 M
CC(=O)O[C@H]1C(=O)[C@@]2(C)[C@H]([C@H](OC(=O)c3ccccc3)[C@]3(O)C[C@H](OC(=O)[C@H](O)[C@@H](NC(=O)c4ccccc4)c4ccccc4)C(C)=C1C3(C)C)[C@]1(OC(C)=O)CO[C@@H]1C[C@@H]2O [taxol, paclitaxel] | 10^−11 M
